Key:
Assay in all cases: relative viability (nuclei count vs DMSO), 5 days (fraction); higher = more cells survive
[1] = compound: NC(=O)[C@@H](CCC(F)(F)F)N(Cc1ccc(-c2ncon2)cc1F)S(=O)(=O)c1ccc(Cl)cc1 [Avagacestat]
How it was run: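 Viability is treated-well nuclei as a fraction of vehicle-well nuclei, reported as the median across plates. Before counting, lung cancer cell lines were kept overnight at 37 °C in 1536-well plates, pinned with five √10-spaced library-drug doses on vehicle-anchored plates, and left 5 days without medium change, then fixed, permeabilised and Hoechst-stained in one step, imaged at 4× and counted by MetaXpress. A plate passed only if control CV was below 25% and at least one doubling occurred.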

[2] = compound: NC(=O)[C@@H](CCC(F)(F)F)N(Cc1ccc(-c2ncon2)cc1F)S(=O)(=O)c1ccc(Cl)cc1 [Avagacestat] + CC(=O)Nc1cccc(-n2c(=O)n(C3CC3)c(=O)c3c(Nc4ccc(I)cc4F)n(C)c(=O)c(C)c32)c1 [Trametinib] (partner 0.02 µM)
How it was run: (§1)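 One day after seeding in 1536-well plates, lung cancer cell lines were dosed by pin tool. Dosing was either single-drug or a fixed anchor-drug dose plus five library-drug doses (not always all listed) in √10 steps. After 5 days, nuclei were stained in one fix-and-stain step and counted on 4× images, and relative viability is the nuclei count of treated wells over that of vehicle wells, given as the median of duplicate plates.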

[3] = compound: NC(=O)[C@@H](CCC(F)(F)F)N(Cc1ccc(-c2ncon2)cc1F)S(=O)(=O)c1ccc(Cl)cc1 [Avagacestat] + Cc1cc(Nc2cc(N3CCN(C)CC3)nc(Sc3ccc(NC(=O)C4CC4)cc3)n2)n[nH]1 [Tozasertib] (partner 0.1 µM)
How it was run: as §1

[4] = compound: NC(=O)[C@@H](CCC(F)(F)F)N(Cc1ccc(-c2ncon2)cc1F)S(=O)(=O)c1ccc(Cl)cc1 [Avagacestat] + NC(=O)Nc1cc(-c2cccc(F)c2)sc1C(=O)N[C@H]1CCCNC1 [AZD7762] (partner 0.2 µM)
How it was run: as §1

Row | Cell Line | relative viability ([1]; 0.08 µM) | relative viability ([1]; 0.253 µM) | relative viability ([1]; 0.8 µM) | relative viability ([1]; 2.53 µM) | relative viability ([1]; 8 µM) | relative viability ([2]; first compound 0.08 µM) | relative viability ([2]; first compound 0.253 µM) | relative viability ([2]; first compound 0.8 µM) | relative viability ([2]; first compound 2.53 µM) | relative viability ([2]; first compound 8 µM) | relative viability ([3]; first compound 0.08 µM) | relative viability ([3]; first compound 0.253 µM) | relative viability ([3]; first compound 0.8 µM) | relative viability ([3]; first compound 2.53 µM) | relative viability ([3]; first compound 8 µM) | relative viability ([4]; first compound 0.08 µM) | relative viability ([4]; first compound 0.253 µM) | relative viability ([4]; first compound 0.8 µM) | relative viability ([4]; first compound 2.53 µM) | relative viability ([4]; first compound 8 µM)
1 | NCI-H1666 | 1.28 | 1.18 | 1.26 | 1.17 | 1.17 | 1.29 | 1.04 | 1.02 | 0.991 | 0.748 | 0.726 | 0.602 | 0.706 | 0.582 | 0.586 | 1 | 0.88 | 1 | 0.93 | 0.876
2 | NCI-H1915 | 1.04 | 1.21 | 1.06 | 1.03 | 0.978 | 0.29 | 0.305 | 0.254 | 0.3 | 0.252 | 0.51 | 0.48 | 0.464 | 0.393 | 0.398 | 0.694 | 0.72 | 0.74 | 0.806 | 0.678
3 | NCI-H2085 | 1.05 | 1.02 | 1.04 | 1.1 | 0.985 | 0.608 | 0.604 | 0.637 | 0.559 | 0.644 | 0.849 | 0.894 | 0.842 | 0.803 | 0.829 | 1.07 | 1.13 | 1.09 | 1.08 | 0.794
4 | NCI-H1755 | 1.03 | 1.1 | 1.17 | 0.941 | 0.964 | 0.837 | 0.884 | 0.8 | 0.777 | 0.729 | 0.641 | 0.562 | 0.575 | 0.624 | 0.54 | 0.425 | 0.672 | 0.4 | 0.38 | 0.473
5 | NCI-H322M | 0.916 | 0.833 | 0.97 | 0.74 | 0.846 | 0.48 | 0.457 | 0.343 | 0.465 | 0.443 | 0.491 | 0.51 | 0.5 | 0.454 | 0.474 | 0.609 | 0.542 | 0.496 | 0.503 | 0.588
6 | CAL-12T | 1.09 | 1.12 | 1.11 | 1.11 | 1.04 | 0.407 | 0.417 | 0.418 | 0.413 | 0.443 | 0.368 | 0.358 | 0.385 | 0.24 | 0.278 | 0.703 | 0.703 | 0.782 | 0.61 | 0.569
7 | HCC-827 | 1.1 | 1.09 | 1.11 | 1.09 | 1.11 | 0.602 | 0.509 | 0.543 | 0.531 | 0.507 | 0.452 | 0.434 | 0.506 | 0.381 | 0.462 | 0.193 | 0.188 | 0.216 | 0.161 | 0.188
8 | NCI-H2087 | 1.29 | 1.06 | 1.12 | 1.08 | 1.06 | 0.211 | 0.223 | 0.196 | 0.183 | 0.198 | 0.218 | 0.286 | 0.277 | 0.248 | 0.237 | 1.41 | 1.65 | 1.31 | 1.24 | 1.18
